In one assay the target is Adenosine receptor A2a (Rattus norvegicus, UniProt P30543).
A further assay deals with T1, Adenosine receptor A3 (Rattus norvegicus, UniProt P28647).
T1 sequence (P28647 whole entry): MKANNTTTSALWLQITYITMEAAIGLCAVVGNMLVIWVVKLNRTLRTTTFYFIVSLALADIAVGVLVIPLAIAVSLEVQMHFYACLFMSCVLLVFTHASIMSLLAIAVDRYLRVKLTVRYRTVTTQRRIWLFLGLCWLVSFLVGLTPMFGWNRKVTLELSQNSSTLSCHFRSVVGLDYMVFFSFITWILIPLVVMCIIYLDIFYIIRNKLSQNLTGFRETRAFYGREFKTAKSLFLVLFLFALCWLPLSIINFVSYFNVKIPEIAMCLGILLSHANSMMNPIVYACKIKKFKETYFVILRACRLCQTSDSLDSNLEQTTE
In words: biochemical.

For assay [1], the target named is Adenosine receptors; A1 & A3 (Rattus norvegicus) (UniProt P25099+P28647). As to the kind of experiment: Selectivity for binding affinity towards A1 adenosine receptor in rat brain membrane and rat A3 receptor expressed in CHO cells. The class given is cell-based.
In the next assay the target is T2, Adenosine receptor A1 (Rattus norvegicus, UniProt P25099).
T2 sequence (P25099 whole entry): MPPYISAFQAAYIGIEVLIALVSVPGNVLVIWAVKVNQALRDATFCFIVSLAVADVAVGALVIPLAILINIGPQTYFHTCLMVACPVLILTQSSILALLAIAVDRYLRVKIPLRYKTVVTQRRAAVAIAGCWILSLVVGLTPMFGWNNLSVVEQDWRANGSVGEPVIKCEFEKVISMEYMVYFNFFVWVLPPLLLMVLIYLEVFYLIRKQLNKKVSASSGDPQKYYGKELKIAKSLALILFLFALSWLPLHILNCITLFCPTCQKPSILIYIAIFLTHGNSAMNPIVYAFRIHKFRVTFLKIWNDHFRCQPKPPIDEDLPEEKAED

The target in assay [2] is Adenosine receptor A2a (Rattus norvegicus) (UniProt P30543). In words: Binding affinity against Adenosine A2A receptor of rat striatal membranes using [3H]- CGS 21680 at 10E-4. Particulars: concentration not given here.
Chain of Adenosine receptor A2a (Rattus norvegicus) (P30543 whole entry): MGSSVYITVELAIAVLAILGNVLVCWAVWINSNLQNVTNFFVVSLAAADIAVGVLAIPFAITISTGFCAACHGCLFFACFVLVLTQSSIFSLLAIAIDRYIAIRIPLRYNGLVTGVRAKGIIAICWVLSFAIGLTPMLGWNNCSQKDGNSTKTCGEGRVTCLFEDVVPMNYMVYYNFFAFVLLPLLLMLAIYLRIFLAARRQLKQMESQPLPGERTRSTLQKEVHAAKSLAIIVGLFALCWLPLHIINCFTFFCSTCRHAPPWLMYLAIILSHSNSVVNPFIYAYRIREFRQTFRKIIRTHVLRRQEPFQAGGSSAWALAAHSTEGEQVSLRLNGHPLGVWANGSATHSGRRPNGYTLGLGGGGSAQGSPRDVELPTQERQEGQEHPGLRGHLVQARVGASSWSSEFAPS

Chain of Adenosine receptor A2a (P30543 whole entry): as above
Description for Adenosine receptor A1: Binding affinity against adenosine A1 receptor in rat brain membranes using [3H]R-PIA.
Description for Adenosine receptor A3: Binding affinity against rat adenosine A3 receptor expressed in CHO cells using [125I]-.

What is called Ki is the equilibrium dissociation constant of an inhibitor or competing ligand from its target. The low end stands for tighter binding, the high end for weaker binding. As to `CCNC(=O)[C@H]1O[C@@H](n2cnc3c(NC(=O)Nc4cccc(Cl)c4)nc(I)nc32)[C@H](O)[C@@H]1O`, the inhibition constant (Ki) came to 10600 nM at Adenosine receptor A2a, 315 nM on Adenosine receptor A3 and 103 nM on Adenosine receptor A1. For the same molecule, the Ratio in assay [1] amounted to 0.33.
In the case of `CCNC(=O)[C@H]1O[C@@H](n2cnc3c(NC(=O)c4ccc(-c5ccccc5)cc4)ncnc32)[C@H](O)[C@@H]1O`, in assay [1], the Ratio came out at 0.006.
`CCNC(=O)[C@H]1O[C@@H](n2cnc3c(NC(=O)NCCc4ccccc4)ncnc32)[C@H](O)[C@@H]1O`: the inhibition constant Ki on Adenosine receptor A2a turned out to be 2650 nM; on Adenosine receptor A3 it was 149 nM; at Adenosine receptor A1, 129 nM. Moreover, the Ratio in assay [1] is 0.86.
Turning to `CCNC(=O)[C@H]1O[C@@H](n2cnc3c(NC(=O)Nc4ccc(S(N)(=O)=O)cc4)ncnc32)[C@H](O)[C@@H]1O`, the Ratio in assay [1] came out at 47.
Turning to `CCNC(=O)[C@H]1O[C@@H](n2cnc3c(NC(=O)Nc4ccc(NS(=O)(=O)c5ccccn5)cc4)ncnc32)[C@H](O)[C@@H]1O`, the inhibitory constant (Ki) at Adenosine receptor A2a turned out to be 740 nM; on Adenosine receptor A3, 54.1 nM; at Adenosine receptor A1, 292 nM. In addition, in assay [1], the Ratio turned out to be 5.4.
By inhibition is commonly meant the drop in the measured response relative to a control, in per cent. High values mean a strong effect, low ones a weak effect. As to `CCNC(=O)[C@H]1O[C@@H](n2cnc3c(NC(=O)Nc4ccc(OC)cc4)nc(C#Cc4ccccc4)nc32)[C@H](O)[C@@H]1O`, the Ki on Adenosine receptor A3 is 154 nM; on Adenosine receptor A1, 4790 nM. Besides, in assay [1], the Ratio came to 31. The inhibition in assay [2] is 29%.
For `CCNC(=O)[C@H]1O[C@@H](n2cnc3c(NC(=O)Nc4ccc(OC)cc4)nc(Cl)nc32)[C@H](O)[C@@H]1O`, the Ki on Adenosine receptor A2a turned out to be 59 nM; on Adenosine receptor A3, 17.1 nM; at Adenosine receptor A1, 22 nM. In assay [1], the Ratio is 1.2.
For the molecule `CCNC(=O)[C@H]1O[C@@H](n2cnc3c(NC(=O)c4ccccc4)ncnc32)[C@H](O)[C@@H]1O`, the Ratio in assay [1] was 0.3.
Same read-out and setting: for `CCNC(=O)[C@H]1O[C@@H](n2cnc3c(N(C(=O)Nc4ccc(Cl)cn4)C(=O)Nc4ccc(Cl)cn4)ncnc32)[C@H](O)[C@@H]1O` the value was 0.13; for `CCNC(=O)[C@H]1O[C@@H](n2cnc3c(NC(=O)NCc4ccccc4)ncnc32)[C@H](O)[C@@H]1O`, 4.5.
Consider `CCNC(=O)[C@H]1O[C@@H](n2cnc3c(NC(=O)NCCc4ccc(OC)c(OC)c4)ncnc32)[C@H](O)[C@@H]1O`, for which the inhibitory constant (Ki) was determined as 1570 nM on Adenosine receptor A2a, 411 nM on Adenosine receptor A3 and 1770 nM on Adenosine receptor A1. The Ratio in assay [1] was 4.3.
On the same counts, the results for `CNC(=O)[C@H]1OC(n2cnc3c(NCc4cccc(I)c4Cl)ncnc32)[C@H](O)[C@@H]1O` (stereo partly specified) are 470 nM, 0.33 nM, 820 nM and 2500.
Consider `CCNC(=O)[C@H]1O[C@@H](n2cnc3c(NC(=O)Nc4ccc(OC)cc4)nc(C#CCCCc4ccccc4)nc32)[C@H](O)[C@@H]1O`, for which the inhibition constant Ki at Adenosine receptor A2a worked out at 1670 nM; at Adenosine receptor A3, 89.5 nM. The Ratio in assay [1] stood at 160.
Regarding `CCNC(=O)[C@H]1O[C@@H](n2cnc3c(NC(=O)Nc4cccc(Cl)c4)nc(C#CC(O)c4ccccc4)nc32)[C@H](O)[C@@H]1O` (stereo partly specified), the figures for the Ki at Adenosine receptor A3 and at Adenosine receptor A1 were 696 nM and 814 nM, respectively. The Ratio in assay [1] amounted to 1.2. Further, the inhibition in assay [2] amounted to 12%.
Regarding `CCCOc1ccc(NC(=O)Nc2ncnc3c2ncn3C2O[C@H](C(=O)NCC)[C@@H](O)[C@H]2O)cc1` (stereo partly specified), the Ki at Adenosine receptor A2a was 255 nM; at Adenosine receptor A3 it was 107 nM; at Adenosine receptor A1, 247 nM. Moreover, the Ratio in assay [1] came to 2.3.
For the molecule `CCNC(=O)[C@H]1O[C@@H](n2cnc3c(NC(=O)Cc4ccc(Cl)cc4Cl)ncnc32)[C@H](O)[C@@H]1O`, the Ratio in assay [1] came out at 0.095.
As for `CCNC(=O)[C@H]1O[C@@H](n2cnc3c(NC(=O)c4ccccc4Cl)ncnc32)[C@H](O)[C@@H]1O`, the inhibitory constant (Ki) amounted to 1960 nM on Adenosine receptor A2a, 754 nM on Adenosine receptor A3 and 1170 nM on Adenosine receptor A1. For the same molecule, the Ratio in assay [1] stood at 1.6.
Take `CCNC(=O)[C@H]1O[C@@H](n2cnc3c(NC(=O)Nc4cc(C)on4)ncnc32)[C@H](O)[C@@H]1O`: in assay [1], the Ratio turned out to be 0.27.
In the case of `CCNC(=O)[C@H]1O[C@@H](n2cnc3c(NC(=O)Nc4ccc(OC)cc4)nc(I)nc32)[C@H](O)[C@@H]1O`, the results for the inhibitory constant (Ki) on Adenosine receptor A2a, on Adenosine receptor A3 and on Adenosine receptor A1 were 260 nM, 251 nM and 29.4 nM, respectively. The Ratio in assay [1] is 0.12.
For `CCNC(=O)[C@H]1O[C@@H](n2cnc3c(NC(=O)Nc4cccc(Cl)c4)nc(Cl)nc32)[C@H](O)[C@@H]1O`, the Ki at Adenosine receptor A2a turned out to be 557 nM; at Adenosine receptor A3, 77.6 nM; on Adenosine receptor A1 it was 90 nM. Also, the Ratio in assay [1] turned out to be 1.2.
On the same counts, the results for `CCNC(=O)[C@H]1O[C@@H](n2cnc3c(NC(=O)Nc4cccc(Cl)c4)nc(C#Cc4ccccc4)nc32)[C@H](O)[C@@H]1O` are 48700 nM, 611 nM, 1330 nM and 2.1.
On to `CCNC(=O)[C@H]1O[C@@H](n2cnc3c(NC(=O)c4ccc(OC)cc4)ncnc32)[C@H](O)[C@@H]1O`, for which the Ratio in assay [1] amounted to 0.1.
For `CCNC(=O)[C@H]1O[C@@H](n2cnc3c(NC(=O)NCc4ccco4)ncnc32)[C@H](O)[C@@H]1O`, the values for the Ki at Adenosine receptor A2a, on Adenosine receptor A3 and at Adenosine receptor A1 were 1860 nM, 713 nM and 419 nM, respectively. Further, in assay [1], the Ratio is 0.58.
As for `CCNC(=O)[C@H]1O[C@@H](n2cnc3c(NC(=O)Nc4ccc(OC)cc4)nc(C#CC(O)c4ccccc4)nc32)[C@H](O)[C@@H]1O` (stereo partly specified), the inhibitory constant (Ki) at Adenosine receptor A3 amounted to 324 nM; at Adenosine receptor A1, 75.1 nM. Besides, in assay [1], the Ratio stood at 0.23. Moreover, the inhibition in assay [2] was found to be 12%.
As for `CCNC(=O)[C@H]1OC(n2cnc3c(NC(=O)Nc4ccc(NS(=O)(=O)c5cc(C)on5)cc4)ncnc32)[C@H](O)[C@@H]1O` (stereo partly specified), the Ki on Adenosine receptor A2a was 977 nM; at Adenosine receptor A3, 155 nM; at Adenosine receptor A1 it was 901 nM. For the same molecule, the Ratio in assay [1] is 5.8.
For the molecule `CCNC(=O)[C@H]1O[C@@H](n2cnc3c(NC(=O)Nc4nncs4)ncnc32)[C@H](O)[C@@H]1O`, the Ratio in assay [1] stood at 0.037.
For `CCCCC#Cc1nc(NC(=O)Nc2cccc(Cl)c2)c2ncn([C@@H]3O[C@H](C(=O)NCC)[C@@H](O)[C@H]3O)c2n1`, the Ki amounted to 7130 nM at Adenosine receptor A2a, 581 nM on Adenosine receptor A3 and 2040 nM at Adenosine receptor A1. Besides, in assay [1], the Ratio came to 3.5.
Take `CCNC(=O)[C@H]1O[C@@H](n2cnc3c(NC(=O)Nc4ccc(C(C)=O)cc4)ncnc32)[C@H](O)[C@@H]1O`: in assay [1], the Ratio turned out to be 3.5.
On to `CCNC(=O)[C@H]1O[C@@H](n2cnc3c(NC(=O)N[C@H](C)c4ccccc4)ncnc32)[C@H](O)[C@@H]1O`, for which, in assay [1], the Ratio was found to be 27.
On the same count and under the same terms, then `CCNC(=O)[C@H]1O[C@@H](n2cnc3c(NC(=O)N[C@@H](C)c4ccccc4)ncnc32)[C@H](O)[C@@H]1O`, with 1.7.
For the molecule `CCNC(=O)[C@H]1O[C@@H](n2cnc3c(NC(=O)Nc4ccc(NS(=O)(=O)c5ncccn5)cc4)ncnc32)[C@H](O)[C@@H]1O`, the inhibitory constant (Ki) at Adenosine receptor A2a was 16.8 nM; on Adenosine receptor A3 it was 405 nM; on Adenosine receptor A1, 725 nM. For the same molecule, the Ratio in assay [1] is 1.7.
Taken in the same sequence, the figures for `CCCCC#Cc1nc(NC(=O)Nc2ccc(OC)cc2)c2ncn([C@@H]3O[C@H](C(=O)NCC)[C@@H](O)[C@H]3O)c2n1` were 2330 nM, 211 nM, 428 nM and 2.
